Data published in US20240309004A1, “SELECTIVE CYCLIN-DEPENDENT KINASE INHIBITORS AND METHODS OF THERAPEUTIC USE THEREOF” (ViroKyne Therapeutics, LLC, priority 2021, published 2024).
Like-named read-outs stand apart in the source and are kept apart here.

Key:
HSV1 strain E-377 = experiment: HSV1 primary assay, strain E-377, HFF cells; assay type: cell-based, Herpes Simplex Virus 1
Protocol: (§1) Assays were performed in monolayers as described. […] Toxicity was measured using CTG as above. […] Toxicity was measured using CTG as above.
(§2) Monolayers of HFF cells were prepared in six-well plates and incubated at 37° C. for 2 d to allow the cells to reach confluency. Media was then aspirated from the wells and 0.2 mL of virus-containing solution was added to each of three wells to yield 20-30 plaques in each well. The virus was allowed to adsorb to the cells for 1 h and the plates were agitated every 15 minutes. Compounds were diluted in assay media consisting of MEM with Earl's salts supplemented with 2% FBS, glutamine, penicillin, and gentamycin. Diluted drug was added to duplicate wells and the plates were incubated for various times, depending on the virus used. For HSV-1 and -2, the monolayers were then stained with 1% crystal violet in 20% methanol and the unbound dye removed by washing with dH20. For all other assays, the cell monolayer was stained with 1% Neutral Red solution for 4-6 h then the stain was aspirated and the cells were washed with PBS.

[1] = Cytotoxicity concurrent with HSV1 E-377 primary assay; assay type: cell-based; settings: human
Protocol: as §1

[2] = Metabolic stability in mice liver microsomes; settings: mice liver microsomes, 1 μM compound, 1 mM NADPH, 60 min
Protocol: Potassium phosphate buffer (Kphos) was prepared by adding 0.647 g potassium phosphate monobasic (KH2PO4) and 3.527 g potassium phosphate dibasic (K2HPO4) to 400 mL of Milli-Q water. pH of the buffer was adjusted to 7.4 and volume was made up to 500 mL.
Stock solutions of the test compounds were prepared in DMSO at a concentration of 1 mM.
To this microsomal mix 1.42 μL (1 mM) of test compound and positive control were spiked, from this mix 70 μL was transferred to 96 well plate and pre-incubated at 37° C. for 5 min. […] The plates were centrifuged at 4000 RPM for 15 min and 100 μL aliquots were submitted for analysis by LC-MS/MS.
Samples were monitored for parent compound disappearance in MRM mode using LC-MS/MS. The LC-MS/MS conditions and MRM chromatogram will be provided as per client request.
The peak area ratios of analyte versus internal standard were used to calculate the % remaining at the end of 60 minutes in presence NADPH.

HCMV strain AD169 = experiment: HCMV primary assay (CPE), strain AD169, HFF cells; assay type: cell-based, Human Cytomegalovirus
Protocol: The antiviral activity of the compound against HCMV in the described Primary assay was measured by treating primary Human foreskin fibroblast (HFF) cells infected with HCMV with a range of compound concentrations—description of methods for this assay can be found in section 1.3.2.1. […] . Additional tested assay parameters in this Primary assay can be found in Table 3.2.1 and include EC90, S150, and S190 values—descriptions of those data points can be found in section 3.2.1.

[3] = Cytotoxicity concurrent with HCMV AD169 primary assay; assay type: cell-based, human; settings: human
VZV strain Ellen = experiment: VZV primary assay, strain Ellen, HFF cells; assay type: cell-based, Varicella Zoster Virus
Protocol: as §1, §2

[4] = Cytotoxicity concurrent with VZV Ellen primary assay; assay type: cell-based; settings: human
Protocol: as §1

HSV2 strain G = experiment: HSV2 primary assay, strain G, HFF cells; assay type: cell-based, herpes simplex virus 2
Protocol: as §1, §2

[5] = Cytotoxicity concurrent with HSV2 primary assay; assay type: cell-based; settings: human
Protocol: as §1

[6] = test system: Epstein-Barr virus Akata strain; experiment: Epstein-Barr primary assay, Akata strain, Akata cells; assay type: cell-based
[7] = test system: Adenovirus Adenoid75 strain; experiment: Adenovirus primary assay, Adenoid75 strain, HFF cells; assay type: cell-based; settings: unidentified adenovirus
[8] = Cytotoxicity concurrent with Adenovirus primary assay; assay type: cell-based; settings: human
[9] = Cytotoxicity concurrent with EBV primary assay; settings: human, Akata cells without virus induction
[10] = Human alphaherpesvirus 1, HSV1 primary assay, strain E-377, HFF cells, read-out: EC50
[11] = Human alphaherpesvirus 1, HSV1 primary assay, strain E-377, HFF cells, read-out: EC90
[12] = Human betaherpesvirus 5, HCMV primary assay, virus strain AD169, HFF cells, read-out: EC50
[13] = Human betaherpesvirus 5, HCMV primary assay, virus strain AD169, HFF cells, read-out: EC90
[14] = Human alphaherpesvirus 3, VZV primary assay, strain Ellen, cell line HFF, read-out: EC50
[15] = Human alphaherpesvirus 3, VZV primary assay, strain Ellen, cell line HFF, read-out: EC90
[16] = Human alphaherpesvirus 2, HSV2 primary assay, strain G, HFF cells, read-out: EC50
[17] = Human alphaherpesvirus 2, HSV2 primary assay, strain G, HFF cells, read-out: EC90
[18] = human gammaherpesvirus 4, Epstein-Barr primary assay, Akata strain, Akata cells, read-out: EC50
[19] = human gammaherpesvirus 4, Epstein-Barr primary assay, Akata strain, Akata cells, read-out: EC90
[20] = Adenovirus primary assay, HFF cells, Adenoid75 strain, read-out: EC50
[21] = Adenovirus primary assay, HFF cells, Adenoid75 strain, read-out: EC90
[22] = Human betaherpesvirus 5, AD169, HFF
[23] = human gammaherpesvirus 4, Akata

Compound | EC50 (HSV1 strain E-377; [10]) | EC90 (HSV1 strain E-377; [11]) | CC50 [1] | EC50 (HCMV strain AD169; [12]) | EC90 (HCMV strain AD169; [13]) | CC50 ([3]; CC50) | CC50 [4] | CC50 [5] | CC50 [8] | CC50 at 72 h [9] | also measured
N[C@H]1CC[C@H](Nc2cc3c4ccc(F)cc4nn3cn2)C1 [VKT-036] | 10 µM | 10 µM | 29.4 µM | – | – | – | – | – | – | – | % Remaining at 60 min [2]: 82%
CN(CC1CCC(N(C)c2cc3c4ccc(F)cc4nn3cn2)CC1)C(=O)OC(C)(C)C (centres unmarked) [VKT-009-B] | – | – | – | 0.08 µM | 0.08 µM | 0.17 µM | – | – | – | – | –
CNC1CCC(Nc2cc3c4ccc(F)cc4nn3cn2)CC1 (centres unmarked) [VKT-006] | 10 µM | 10 µM | 38.5 µM | 10 µM | 10 µM | 32.5 µM | 27.2 µM | 42.8 µM | 30.5 µM | 33.5 µM | EC50 (VZV strain Ellen; [14]): 10 µM; EC90 (VZV strain Ellen; [15]): 10 µM; EC50 (HSV2 strain G; [16]): 10 µM; EC90 (HSV2 strain G; [17]): 10 µM; EC50 [6, 18]: 8.32 µM; EC90 [6, 19]: 10 µM; EC50 [7, 20]: 10 µM; EC90 [7, 21]: 10 µM
CN(C(=O)OC(C)(C)C)C1CCC(Nc2cc3c4ccc(F)cc4nn3cn2)CC1 (centres unmarked) [VKT-005] | 10 µM | 10 µM | 16 µM | 0.4 µM | 0.4 µM | 1.48 µM | 1.48 µM | 7.94 µM | 3.81 µM | 39.4 µM | EC50 (VZV strain Ellen; [14]): 0.4 µM; EC90 (VZV strain Ellen; [15]): 0.4 µM; EC50 (HSV2 strain G; [16]): 2 µM; EC90 (HSV2 strain G; [17]): 2 µM; EC50 [6, 18]: 10 µM; EC90 [6, 19]: 10 µM; EC50 [7, 20]: 2 µM; EC90 [7, 21]: 2 µM
CC(C)(C)OC(=O)NCC1CCC(Nc2cc3c4ccc(F)cc4nn3cn2)CC1 (centres unmarked) [VKT-001] | – | – | – | 2 µM | 2 µM | 6.19 µM | – | – | – | – | –
N[C@@H]1CC[C@H](Nc2cc3c4ccc(F)cc4nn3cn2)C1 [VKT-034] | 10 µM | 10 µM | 18.7 µM | – | – | – | – | – | – | – | % Remaining at 60 min [2]: 81%
Fc1ccc2c(c1)nn1cnc(NC3CCNCC3)cc21 [VKT-319, 7-fluoro-N-(piperidin-4-yl)pyrimido[1,6-b]indazol-3-amine] | – | – | – | 10 µM | 10 µM | 37.5 µM | – | – | – | – | –
CN1CCC(Nc2cc3c4ccc(F)cc4nn3cn2)CC1 [VKT-023] | – | – | 50 µM | – | – | 46 µM | 44.7 µM | 50 µM | 50 µM | 50 µM | EC50 (HCMV strain AD169; [22]): 10 µM; EC90 (HCMV strain AD169; [22]): 10 µM; EC50 (VZV strain Ellen; Human alphaherpesvirus 3, HFF): 10 µM; EC90 (VZV strain Ellen; Human alphaherpesvirus 3, HFF): 10 µM; EC50 (HSV1 strain E-377; Human alphaherpesvirus 1, HFF): 50 µM; EC90 (HSV1 strain E-377; Human alphaherpesvirus 1, HFF): 50 µM; EC50 (HSV2 strain G; Human alphaherpesvirus 2, HFF): 50 µM; EC90 (HSV2 strain G; Human alphaherpesvirus 2, HFF): 50 µM; EC50 [6, 23]: 29.5 µM; EC90 [6, 23]: 50 µM; EC50 ([7]; HFF): 50 µM; EC90 ([7]; HFF): 50 µM
CCN1CCC(Nc2cc3c4ccc(F)cc4nn3cn2)CC1 [VKT-025] | – | – | – | 10 µM | 10 µM | 48.1 µM | – | – | – | – | –
OCCC1CCC(Nc2cc3c4ccc(F)cc4nn3cn2)CC1 (centres unmarked) [VKT-032] | – | – | – | – | – | – | – | – | – | – | EC50 (HCMV strain AD169; [22]): 10 µM; EC90 (HCMV strain AD169; [22]): 10 µM; CC50 ([3]; HCMV primary assay, HFF cells, read-out: CC50): 26.2 µM
CN(C)CC1CCC(Nc2cc3c4ccc(F)cc4nn3cn2)CC1 (centres unmarked) [VKT-008] | 50 µM | 50 µM | 50 µM | 10 µM | 10 µM | 38.8 µM | 37.2 µM | 50 µM | 48.6 µM | 50 µM | EC50 (VZV strain Ellen; [14]): 10 µM; EC90 (VZV strain Ellen; [15]): 10 µM; EC50 (HSV2 strain G; [16]): 50 µM; EC90 (HSV2 strain G; [17]): 50 µM; EC50 [6, 18]: 8.16 µM; EC90 [6, 19]: 44 µM; EC50 [7, 20]: 10 µM; EC90 [7, 21]: 10 µM
